We go through two compounds from patent publication US20040253259A1, “Biological compositions and methods for treatment of kidney cancer” (priority 2003, published 2004).

Common to all, as to assay type: in vivo
Assay [1] concerns complex cancer cells of kidney. Briefly: Syrian hamster model of human kidney cancer, survival time over 6 months (Example 7). The conditions noted are these: for Number of live animals remaining in the groups after 30 days of treatment: 30 per group. As for the experimental part:
The following example illustrates the benefit of a biological composition of the invention in a Syrian hamster model of human kidney cancer. The survival time of hamsters after tumor injection and treatment was studied.
(§1) The biological composition comprising 10^8 cells per ml of activated and conditioned yeast cells of the strain Saccharomyces carlsbergensis Hansen strain AS2.189 was prepared by the methods described in Section 5.1 and subsections therein.
The animals were prepared in a similar manner as described in Section 6.1.
The hamsters injected with tumor cells were immediately divided into 4 experimental groups of ten hamsters per group and one control group. The four experimental groups were triplicated (i.e., using a total of 120 hamsters in the experimental groups). In group 2AY, the hamsters received 0.5 ml of the biological composition once per day. In group 2NY, the hamsters received 0.5 ml of the untreated yeast cells once per day. In group 2FUDR, the hamsters were injected subcutaneously with 0.6 mg of fluoruridine (FUDR) per kg body weight per day. In group 2CK1, the hamsters received 0.5 ml of physiological saline once per day.
The hamsters received the biological compositions, untreated yeast cells, FUDR or saline on the same day as the tumor cells were transplanted. The hamsters in group 2CK2 also started receiving saline on the same day as the other four groups. The biological compositions, untreated yeast cells and saline were administered orally by a feeding tube and the FUDR by subcutaneous injection for 30 consecutive days. The hamsters were observed over 6 months from the day of tumor inoculation and survival was recorded. The weight of the hamsters and the weight of the tumor were determined by standard techniques.

Assay [2] relates to complex cancer cells of kidney. The experiment in a line: Syrian hamster model of human kidney cancer, tumor growth (Example 6). The conditions noted are these: tumor-bearing hamsters, 30 consecutive days of treatment, sacrificed on 31st day from tumor inoculation.
Text: The following example illustrates the benefit of a biological composition of the invention in a Syrian hamster model of human kidney cancer. The growth of the tumor in the hamsters was studied. Detailed description of the use of Syrian hamster to study kidney cancer can be found in, e.g., Liehr et al., 1991, Carcinogenesis 12:385-9, which is incorporated herein by reference in its entirety.
(§2) Complex cancer cells of kidney closely resembles the human kidney cancer pathology. See e.g., Modern Clinical Experimental Protocols, People's Republic of China Health Publishing House, 1997.
as §1
The animals used to generate the kidney cancer cells for the experiments were Syrian hamsters (obtainable from the Institute of Laboratory Animal Sciences, Chinese Academy of Medical Sciences, Beijing, China), an equal number of male and female, 5 to 6 months old, having an average body weight of 150 to 180 gram. […]
The hamsters received the biological compositions, untreated yeast cells, FUDR or saline on the same day as the tumor cells were transplanted. […] The weight of the hamsters and the weight of the tumor were determined by standard techniques.

The subject of assay [3] is complex cancer cells of kidney. Briefly: Wistar rat model of human kidney cancer, survival over 6 months (Example 9). The conditions noted are these: for Number of live animals remaining in the groups after 30 days of treatment: 30 per group. As to the method: (§3) The following example illustrates the benefit of a biological composition of the invention in a Wistar rat model of human kidney cancer. The growth of the tumor in the rats was studied.
as §1
The animals were prepared in a similar manner as described in Section 8.1.
The rats injected with tumor cells were kept for 5 days and then were divided into 4 experimental groups of ten rats per group and one control group. The four experimental groups were triplicated (i.e., using a total of 120 rats in the experimental groups). In group 2AY, the rats received 0.8 ml of the biological composition once per day. In group 2NY, the rats received 0.8 ml of the untreated yeast cells once per day. In group 2VCR, the rats were injected intravenously with 3 mg of […] (VCR) per kg body weight per day. In group 2CK1, the rats received 0.8 ml of physiological saline once per day.
The rats received the biological compositions, untreated yeast cells, VCR or saline on the same day as the tumor cells were transplanted. The rats in group 2CK2 also started receiving saline on the same day as the other four groups. The biological compositions, untreated yeast cells and saline were administered orally by a feeding tube and the VCR by intravenous injection for 30 consecutive days. The rats were observed over 6 months from the day of tumor inoculation and survival was recorded. The weight of the rats and the weight of the tumor were determined by standard techniques.

Assay [4] has as its system complex cancer cells of kidney. Briefly: Wistar rat model of human kidney cancer, tumor growth (Example 8). Particulars: tumor-bearing rats, 30 consecutive days of treatment, sacrificed on 31st day from tumor inoculation.
Text: as §3, §2, §1
The animals used to generate the kidney cancer cells for the experiments were Wistar rats (obtainable from the Chinese Academy of Military Medical Sciences, Beijing, China) having an average body weight of about 180 to 200 gram. The complex cancer cells of kidney (obtainable from the Shanghai Medical University, Shanghai, China) were generated from a Wistar rat with kidney cancer that was induced by subcutaneous injection of bismaleimidohexane (BHM). […]
The rats received the biological compositions, untreated yeast cells, VCR or saline on the same day as the tumor cells were transplanted. […] The weight of the rats and the weight of the tumor were determined by standard techniques.

The mark [5] stands for this setting: surviving hamsters, observed over 6 months.
The mark [6] stands for this setting: surviving rats, observed over 6 months.

Consider `O=c1[nH]c(=O)n([C@H]2C[C@H](O)[C@@H](CO)O2)cc1F` [FUDR, fluoruridine], for which the “Number of live animals remaining in the groups after 30 days of treatment” value (shortened to “Number of live animals remaining”) is 30 in assay [1] (hamsters, 0 month after cessation of treatment); 27 in assay [1] (hamsters, 1 month after cessation of treatment); 11 in assay [1] (hamsters, 2 months after cessation of treatment); 5 in assay [1] (hamsters, 3 months after cessation of treatment); 0 in assay [1] (hamsters, 4 months after cessation of treatment); 0 in assay [1] (hamsters, 5 months after cessation of treatment). For the same compound, the “Number of live animals remaining” value in assay [1] (hamsters, 6 months after cessation of treatment) is on record as 0. Further, the “survival outcome during the experiment” value in assay [1] (hamsters, observed over 6 months) is recorded as “all died”. Moreover, the “mean weight of hamsters and standard deviation” value in assay [1] (setting [5]) is on record as “all animals dead”; in assay [2] it was 116.7 ± 4.9 g. Also, the results for the “mean weight of tumor nodules and standard deviation” value in assay [1] (setting [5]) and in assay [2] were “all animals dead” and 2.7 ± 1.2 mg, respectively.

`CC[C@]1(O)C[C@@H]2CN(CCc3c([nH]c4ccccc34)[C@@](C(=O)OC)(c3cc4c(cc3OC)N(C)[C@H]3[C@@](O)(C(=O)OC)[C@H](OC(C)=O)[C@]5(CC)C=CCN6CC[C@]43[C@@H]65)C2)C1` [VCR, vinblastine]: the “Number of live animals remaining” value in assay [3] (rats, 0 month after cessation of treatment) is on record as 30; in assay [3] (rats, 1 month after cessation of treatment) it was 30; in assay [3] (rats, 2 months after cessation of treatment) it was 30; in assay [3] (rats, 3 months after cessation of treatment), 22; in assay [3] (rats, 4 months after cessation of treatment), 13; in assay [3] (rats, 5 months after cessation of treatment), 0. For the same compound, the “Number of live animals remaining” value in assay [3] (rats, 6 months after cessation of treatment) turned out to be 0. Besides, the “survival outcome during the experiment” value in assay [3] (rats, observed over 6 months) is “all died”. Moreover, the “mean weight of rats and standard deviation” value was “all animals dead” in assay [3] (setting [6]) and 189.6 ± 2.5 g in assay [4]. Also, the “mean weight of tumor nodules and standard deviation” value in assay [3] (setting [6]) is given as “all animals dead”; in assay [4], 3.7 ± 1.9 g.
